Format in all cases: binding
Assay [1] deals with T1, EcNFeoB (GTPase domain of Escherichia coli FeoB) (Escherichia coli, UniProt P33650, R152A).
T1 construct: soluble N-terminal GTPase domain, residues 1-270; GST fusion (pGEX-4T-1) in E. coli BL21(DE3), GST removed by thrombin, size exclusion; an alternate S150A-TEV construct (TEV-cleaved) was also made
T1 sequence (P33650 1-270 R152A): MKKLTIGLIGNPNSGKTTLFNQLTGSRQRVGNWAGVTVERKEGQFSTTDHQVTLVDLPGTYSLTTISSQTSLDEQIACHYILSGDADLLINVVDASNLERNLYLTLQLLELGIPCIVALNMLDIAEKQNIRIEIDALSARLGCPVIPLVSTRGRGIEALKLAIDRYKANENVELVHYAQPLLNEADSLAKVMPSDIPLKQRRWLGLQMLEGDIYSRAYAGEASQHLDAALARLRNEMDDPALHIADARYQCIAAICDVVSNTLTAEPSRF
In words: isothermal titration calorimetry, one-site model. To be noted: read-out: Kd^** (μM) GDP. The source says: (§1) isothermal titration calorimetry, one-site model on EcNFeoB (GTPase domain of Escherichia coli FeoB)

In assay [2] the target is T2, EcNFeoB (GTPase domain of Escherichia coli FeoB) (Escherichia coli, UniProt P33650, T151A).
T2 construct: soluble N-terminal GTPase domain, residues 1-270; GST fusion (pGEX-4T-1) in E. coli BL21(DE3), GST removed by thrombin, size exclusion; an alternate S150A-TEV construct (TEV-cleaved) was also made
T2 sequence (P33650 1-270 T151A): T1 sequence (P33650 1-270 R152A)
Nature of the assay: isothermal titration calorimetry, one-site model. To be noted: read-out: Kd^** (μM) GDP.
Source text: as §1
In general terms: Isothermal titration calorimetry measures the heat released or taken up as one component is titrated into another.

Assay [3] concerns the target T3, EcNFeoB (GTPase domain of Escherichia coli FeoB) (Escherichia coli, UniProt P33650, S150A).
T3 construct: soluble N-terminal GTPase domain, residues 1-270; GST fusion (pGEX-4T-1) in E. coli BL21(DE3), GST removed by thrombin, size exclusion; an alternate S150A-TEV construct (TEV-cleaved) was also made
T3 sequence (P33650 1-270 S150A): T1 sequence (P33650 1-270 R152A)
In words: isothermal titration calorimetry, one-site model. The note with it: read-out: Kd^** (μM) GDP.
Source text: as §1

Assay [4] deals with T4, EcNFeoB (GTPase domain of Escherichia coli FeoB) (Escherichia coli, UniProt P33650, G153A).
T4 construct: soluble N-terminal GTPase domain, residues 1-270; GST fusion (pGEX-4T-1) in E. coli BL21(DE3), GST removed by thrombin, size exclusion; an alternate S150A-TEV construct (TEV-cleaved) was also made
T4 sequence (P33650 1-270 G153A): T1 sequence (P33650 1-270 R152A)
Nature of the assay: isothermal titration calorimetry, one-site model. The note with it: read-out: Kd^** (μM) GDP.
Source text: as §1

The target in assay [5] is T5, EcNFeoB (GTPase domain of Escherichia coli FeoB) (Escherichia coli, UniProt P33650, R154A).
T5 construct: soluble N-terminal GTPase domain, residues 1-270; GST fusion (pGEX-4T-1) in E. coli BL21(DE3), GST removed by thrombin, size exclusion; an alternate S150A-TEV construct (TEV-cleaved) was also made
T5 sequence (P33650 1-270 R154A): T1 sequence (P33650 1-270 R152A)
Nature of the assay: isothermal titration calorimetry, one-site model. The note with it: read-out: Kd^** (μM) GDP.
Source text: as §1

Assay [6] addresses T1, EcNFeoB (GTPase domain of Escherichia coli FeoB). In words: stopped-flow fluorescence, koff/kon from kobs versus protein concentration. To be noted: 20 mM Tris pH 8.0, 100 mM NaCl, 100 mM MgCl2, 20 °C; labelled compound (mant-GMPPNP; table heading prints GMPPNP). The source says:
(§2) stopped-flow fluorescence, koff/kon from kobs versus protein concentration on EcNFeoB (GTPase domain of Escherichia coli FeoB)

Assay [7] addresses T2, EcNFeoB (GTPase domain of Escherichia coli FeoB). The assay is described as above. To be noted: 20 mM Tris pH 8.0, 100 mM NaCl, 100 mM MgCl2, 20 °C; labelled compound (mant-GMPPNP; table heading prints GMPPNP).
Source text: as §2

The target in assay [8] is T4, EcNFeoB (GTPase domain of Escherichia coli FeoB). The description is as above. The note with it: 20 mM Tris pH 8.0, 100 mM NaCl, 100 mM MgCl2, 20 °C; labelled compound (mant-GMPPNP; table heading prints GMPPNP).
Source text: as §2

Assay [9] concerns the target T5, EcNFeoB (GTPase domain of Escherichia coli FeoB). Described as above. To be noted: 20 mM Tris pH 8.0, 100 mM NaCl, 100 mM MgCl2, 20 °C; labelled compound (mant-GMPPNP; table heading prints GMPPNP).
Source text: as §2

By Kd is commonly meant the free concentration of one partner at which half of the binding sites on the other are occupied at equilibrium, for simple one-to-one binding. Turning to `Nc1nc2c(ncn2[C@@H]2O[C@H](COP(=O)(O)OP(=O)(O)O)[C@@H](O)[C@H]2O)c(=O)[nH]1` [GDP], the Kd stood at 8 ± 1 µM in [1]; 33 ± 4 µM in [2]; 2 ± 0.3 µM in assay [3]; 11 ± 2 µM in [4]; 9 ± 2 µM in assay [5].

Take mant-GMPPNP: the Kd in assay [6] is 23 µM; in [7], 27 µM; in assay [8], 17 µM; in assay [9], 43 µM.
